Measured values: patent publication US20250236608A1, “EGFR INHIBITORS” (Blueprint Medicines Corporation, priority 2022, published 2025)

Experiments:
EGFR L858R = EGFR L858R (Homo sapiens (Human), UniProt P00533, L858R); test: Biochemical EGFR inhibition assay, EGFR L858R; details: Caliper mobility shift; 1.0 mM ATP or ATP Km; read-out: Enz EGFR_L858R IC50
[1] = biological target: pEGFR (Tyr1068) in PC-9 cells (Ex19Del) (Homo sapiens (Human), UniProt P00533, DEL746-750); test: PC-9 pEGFR AlphaLISA assay; type: cell-based; details: 4 hours incubation, p-EGFR (Tyr1068) AlphaLISA, read-out: Ext pEGFR_PC-9 Ex19Del IC50
Sequence of pEGFR (Tyr1068) in PC-9 cells (Ex19Del) (P00533 other isoform, or with tags, fused parts or gaps del 746-750): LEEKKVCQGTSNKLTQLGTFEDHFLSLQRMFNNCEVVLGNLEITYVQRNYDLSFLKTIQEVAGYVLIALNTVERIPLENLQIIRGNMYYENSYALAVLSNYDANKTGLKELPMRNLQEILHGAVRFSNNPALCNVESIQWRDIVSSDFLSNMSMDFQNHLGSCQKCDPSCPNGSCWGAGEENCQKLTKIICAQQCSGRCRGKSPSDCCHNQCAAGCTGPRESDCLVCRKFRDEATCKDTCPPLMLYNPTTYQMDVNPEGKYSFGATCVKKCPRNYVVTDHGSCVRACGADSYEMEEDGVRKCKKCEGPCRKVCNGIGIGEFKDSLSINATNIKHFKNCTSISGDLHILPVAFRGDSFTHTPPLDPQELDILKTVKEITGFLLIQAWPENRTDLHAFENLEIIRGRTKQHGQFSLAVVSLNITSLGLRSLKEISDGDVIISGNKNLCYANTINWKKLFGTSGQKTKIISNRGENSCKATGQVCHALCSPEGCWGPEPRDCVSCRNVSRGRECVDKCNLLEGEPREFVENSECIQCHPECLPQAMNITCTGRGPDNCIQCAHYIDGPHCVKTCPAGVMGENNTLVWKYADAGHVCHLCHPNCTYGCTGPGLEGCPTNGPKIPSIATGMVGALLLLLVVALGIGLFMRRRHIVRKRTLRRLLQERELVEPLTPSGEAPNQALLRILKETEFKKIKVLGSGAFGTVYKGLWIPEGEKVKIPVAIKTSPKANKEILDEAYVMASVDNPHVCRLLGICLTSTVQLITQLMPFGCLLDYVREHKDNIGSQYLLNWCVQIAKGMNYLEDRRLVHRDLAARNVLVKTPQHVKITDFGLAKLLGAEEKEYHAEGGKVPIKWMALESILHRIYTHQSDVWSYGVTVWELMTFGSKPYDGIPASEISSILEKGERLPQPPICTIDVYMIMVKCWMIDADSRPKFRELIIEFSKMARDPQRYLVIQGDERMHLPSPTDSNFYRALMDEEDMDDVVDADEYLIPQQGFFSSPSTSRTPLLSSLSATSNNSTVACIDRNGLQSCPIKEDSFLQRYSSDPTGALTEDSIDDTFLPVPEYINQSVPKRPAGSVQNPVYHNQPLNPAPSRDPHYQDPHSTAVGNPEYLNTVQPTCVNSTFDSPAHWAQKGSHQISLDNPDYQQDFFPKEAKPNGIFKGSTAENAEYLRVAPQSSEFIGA
Method in brief: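 Compounds are added in ten 4-fold dilutions to adherent cells grown in serum-containing (10% FBS) phenol-free DMEM and left for 4 hours at 37° C. Phosphorylated receptor in lysates is quantified by bead-based AlphaLISA. IC50 values derive from inhibition plotted against log dose.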

EGFR (d746-750) = EGFR (d746-750) (Homo sapiens (Human), UniProt P00533, DEL746-750); test: Biochemical EGFR inhibition assay, EGFR (d746-750); details: Caliper mobility shift; 1.0 mM ATP or ATP Km; read-out: Enz EGFR_Exon19-del746-750 IC50
Sequence of EGFR (d746-750) (P00533 other isoform, or with tags, fused parts or gaps del 1-694/del 746-750 limits assumed): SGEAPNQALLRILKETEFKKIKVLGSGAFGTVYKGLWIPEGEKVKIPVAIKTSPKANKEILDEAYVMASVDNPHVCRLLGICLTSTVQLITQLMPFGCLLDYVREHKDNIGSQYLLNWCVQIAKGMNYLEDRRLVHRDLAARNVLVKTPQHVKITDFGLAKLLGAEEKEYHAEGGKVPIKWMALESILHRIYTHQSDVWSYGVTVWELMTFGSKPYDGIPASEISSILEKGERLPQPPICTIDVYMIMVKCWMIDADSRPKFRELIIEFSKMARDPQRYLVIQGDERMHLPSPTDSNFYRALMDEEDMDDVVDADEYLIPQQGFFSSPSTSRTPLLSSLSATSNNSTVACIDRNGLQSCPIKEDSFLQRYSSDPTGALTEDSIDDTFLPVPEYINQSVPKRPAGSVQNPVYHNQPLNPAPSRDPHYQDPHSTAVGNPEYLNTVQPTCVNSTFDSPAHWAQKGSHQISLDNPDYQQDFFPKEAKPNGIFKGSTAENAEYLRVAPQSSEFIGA

Sequence of EGFR L858R (P00533 25-1210 L858R): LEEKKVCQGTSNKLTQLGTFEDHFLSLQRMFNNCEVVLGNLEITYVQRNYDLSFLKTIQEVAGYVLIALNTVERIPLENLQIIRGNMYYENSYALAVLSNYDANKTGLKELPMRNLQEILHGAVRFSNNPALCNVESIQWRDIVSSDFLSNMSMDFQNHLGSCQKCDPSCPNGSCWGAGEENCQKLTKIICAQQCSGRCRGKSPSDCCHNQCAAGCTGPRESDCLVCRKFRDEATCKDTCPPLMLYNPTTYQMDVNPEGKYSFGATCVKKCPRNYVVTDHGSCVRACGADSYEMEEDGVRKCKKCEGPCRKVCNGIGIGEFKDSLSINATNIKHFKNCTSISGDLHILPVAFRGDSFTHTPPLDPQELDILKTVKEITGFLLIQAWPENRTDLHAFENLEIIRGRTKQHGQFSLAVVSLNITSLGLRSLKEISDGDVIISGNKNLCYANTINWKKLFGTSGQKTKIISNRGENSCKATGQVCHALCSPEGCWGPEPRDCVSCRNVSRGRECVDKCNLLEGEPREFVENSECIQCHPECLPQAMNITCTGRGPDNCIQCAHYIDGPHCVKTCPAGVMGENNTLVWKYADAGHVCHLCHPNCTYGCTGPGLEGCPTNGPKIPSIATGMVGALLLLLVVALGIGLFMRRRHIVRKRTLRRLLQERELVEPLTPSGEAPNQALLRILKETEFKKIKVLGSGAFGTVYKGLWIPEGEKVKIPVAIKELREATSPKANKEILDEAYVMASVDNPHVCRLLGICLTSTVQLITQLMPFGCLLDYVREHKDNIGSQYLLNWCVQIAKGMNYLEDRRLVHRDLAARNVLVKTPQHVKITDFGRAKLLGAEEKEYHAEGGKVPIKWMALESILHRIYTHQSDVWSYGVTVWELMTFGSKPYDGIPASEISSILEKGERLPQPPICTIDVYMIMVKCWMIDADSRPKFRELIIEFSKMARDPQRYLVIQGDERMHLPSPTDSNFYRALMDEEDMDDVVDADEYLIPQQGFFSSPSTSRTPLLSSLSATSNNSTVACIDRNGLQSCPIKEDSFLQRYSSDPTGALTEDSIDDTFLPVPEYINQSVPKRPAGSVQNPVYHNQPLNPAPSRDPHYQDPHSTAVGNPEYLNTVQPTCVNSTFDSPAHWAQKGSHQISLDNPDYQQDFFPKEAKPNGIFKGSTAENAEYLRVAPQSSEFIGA

Structure (SMILES) | IC50 (EGFR L858R) [nM] | IC50 [1] [nM] | IC50 (EGFR (d746-750)) [nM]
CCn1cc(-c2ncnc3cc(OC)c(NC(=O)[C@]45COC[C@H]4C5)cc23)c(-c2ccccc2)n1 [Example 289, (1S,5S)—N-(4-(1-ethyl-3-phenyl-1H-pyrazol-4-yl)-7-methoxyquinazolin-6-yl)-3-oxabicyclo[3.1.0]hexane-1-carboxamide] | 1.5 | 1.5 | 0.8
COc1cc2ncnc(-c3cn(C)nc3-c3ccccc3)c2nc1O[C@H](C)c1ncsc1C (single isomer, unassigned) [Example 53, (R)-4-(1-((7-methoxy-4-(1-methyl-3-phenyl-1H-pyrazol-4-yl)pyrido[3,2-d]pyrimidin-6-yl)oxy)ethyl)-5-methylthiazole or (S)-4-(1-((7-methoxy-4-(1-methyl-3-phenyl-1H-pyrazol-4-yl)pyrido[3,2-d]pyrimidin-6-yl)oxy)ethyl)-5-methylthiazole] | 12.8 | 2.7 | 1.1
COc1cc2ncnc(-c3cn(C)nc3-c3ccccc3)c2nc1OC(C)c1cn(C)nn1 (stereo not drawn) [Example 34, 7-methoxy-6-(1-(1-methyl-1H-1,2,3-triazol-4-yl)ethoxy)-4-(1-methyl-3-phenyl-1H-pyrazol-4-yl)pyrido[3,2-d]pyrimidine] | 6.1 | 2.5 | 1.6
COc1cc2ncnc(-c3cn(C)nc3-c3ccc(F)cc3)c2cc1NC(=O)C1CC(F)(F)C1 [Example 212, 3,3-difluoro-N-(4-(3-(4-fluorophenyl)-1-methyl-1H-pyrazol-4-yl)-7-methoxyquinazolin-6-yl)cyclobutane-1-carboxamide] | 0.4 | 1 | 0.2
CCC(=O)Nc1cc2c(-c3cn(C)nc3-c3ccccc3)ncnc2cc1OCC1COC1 [Example 277, N-(4-(1-methyl-3-phenyl-1H-pyrazol-4-yl)-7-(oxetan-3-ylmethoxy)quinazolin-6-yl)propionamide] | 3.7 | 6 | 1.9
COc1cc2ncnc(-c3cnn(C(F)(F)F)c3-c3ccccc3)c2cc1NC(=O)C12CC(C1)C2 [Example 485, N-(7-methoxy-4-(5-phenyl-1-(trifluoromethyl)-1H-pyrazol-4-yl)quinazolin-6-yl)bicyclo[1.1.1]pentane-1-carboxamide] | 121 | 1210 | 76.3
CCOc1cc2ncnc(-c3cn(C)nc3-c3ccccc3)c2nc1NC1CCOCC1 [Example 158, 7-ethoxy-4-(1-methyl-3-phenyl-1H-pyrazol-4-yl)-N-(tetrahydro-2H-pyran-4-yl)pyrido[3,2-d]pyrimidin-6-amine] | 1.7 | 0.2 | 1.4
COc1cc2ncnc(-c3cn(CC(F)F)nc3-c3ccccc3)c2cc1NC(=O)c1ccns1 [Example 272, N-(4-(1-(2,2-difluoroethyl)-3-phenyl-1H-pyrazol-4-yl)-7-methoxyquinazolin-6-yl)isothiazole-5-carboxamide] | 1.2 | 0.5 | 1
COc1cc2ncnc(-c3cn(C)nc3-c3ccccc3)c2cc1-c1cnn(CCN(C)C)c1 [Example 233, 2-(4-(7-methoxy-4-(1-methyl-3-phenyl-1H-pyrazol-4-yl)quinazolin-6-yl)-1H-pyrazol-1-yl)-N,N-dimethylethan-1-amine] | 2.9 | 2.5 | 1.7
COc1cc2ncnc(-c3cn(C)nc3-c3ccccc3)c2cc1OC(=O)N1[C@H](C)COC[C@@H]1C [Example 63, 7-methoxy-4-(1-methyl-3-phenyl-1H-pyrazol-4-yl)quinazolin-6-yl (3S,5R)-3,5-dimethylmorpholine-4-carboxylate] | 4.8 | 2.5 | 2.4
Cn1cc(-c2ncnc3cc(OC4CC4)c(NC(=O)C4(C(F)(F)F)CC4)nc23)c(-c2ccccc2)n1 [Example 463, N-[7-cyclopropoxy-4-(1-methyl-3-phenyl-1H-pyrazol-4-yl)pyrido[3,2-d]pyrimidin-6-yl]-1-(trifluoromethyl)cyclopropane-1-carboxamide] | 3.9 | 1.7 | 0.8
COc1cc2ncnc(-c3cn(C)nc3-c3c(F)cccc3F)c2cc1OC(=O)N1CCOC[C@@H]1C [Example 67, 4-(3-(2,6-difluorophenyl)-1-methyl-1H-pyrazol-4-yl)-7-methoxyquinazolin-6-yl (S)-3-methylmorpholine-4-carboxylate] | 8.3 | 12.4 | 2.8
COc1cc2ncnc(-c3cn(C)nc3-c3ccccc3)c2cc1NC(=O)c1ccnnc1 [Example 328, N-(7-methoxy-4-(1-methyl-3-phenyl-1H-pyrazol-4-yl)quinazolin-6-yl)pyridazine-4-carboxamide] | 2.3 | 4.5 | 1.1
COc1cc2ncnc(-c3cn(C)nc3-c3ccccc3)c2cc1C(C)(C)O [Example 121, 2-(7-methoxy-4-(1-methyl-3-phenyl-1H-pyrazol-4-yl)quinazolin-6-yl) propan-2-ol] | 7.6 | 13.8 | 2.7
COc1cc2ncnc(-c3cn(C)nc3-c3ccccc3)c2cc1NC(=O)c1scnc1C [Example 207, N-(7-methoxy-4-(1-methyl-3-phenyl-1H-pyrazol-4-yl)quinazolin-6-yl)-4-methylthiazole-5-carboxamide] | 1.4 | 1 | 0.8
Cc1n[nH]c(-c2ccccc2)c1-c1ncnc2cc(-c3cnn(C)c3)ccc12 [Example 479, 7-(1-methyl-1H-pyrazol-4-yl)-4-(3-methyl-5-phenyl-1H-pyrazol-4-yl)quinazoline] | 2.7 | 25.9 | 2.1

More lines, in order of falling IC50 (EGFR L858R), values ahead:

IC50 (EGFR L858R) [nM] | IC50 [1] [nM] | IC50 (EGFR (d746-750)) [nM] | Structure (SMILES)
277 | 8.9 | 3.4 | COc1cc2ncnc(-c3cn(C)nc3-c3c(F)cccc3F)c2cc1NC(=O)[C@]12C[C@H]1CN(C)C2 [Example 293, (1R,5R)—N-(4-(3-(2,6-difluorophenyl)-1-methyl-1H-pyrazol-4-yl)-7-methoxyquinazolin-6-yl)-3-methyl-3-azabicyclo[3.1.0]hexane-1-carboxamide]
24.9 | 10.5 | 1.6 | COc1cc2ncnc(-c3cn(C)nc3-c3ccccc3)c2nc1NC(=O)C1(F)CCN(C)C1 (stereo not drawn) [Example 433, 3-fluoro-N-(7-methoxy-4-(1-methyl-3-phenyl-1H-pyrazol-4-yl)pyrido[3,2-d]pyrimidin-6-yl)-1-methylpyrrolidine-3-carboxamide]
6.9 | 13.8 | 3.9 | COc1cc2ncnc(-c3cn(CC(F)F)nc3-c3ccc(F)cc3)c2cc1C1(O)CC1 [Example 489]
4.3 | 3.6 | 1.4 | COc1cc2ncnc(-c3cn(C)nc3-c3ccccc3F)c2nc1NC(=O)[C@]12C[C@H]1CN(C)C2 [Example 374, (1R,5R)—N-(4-(3-(2-fluorophenyl)-1-methyl-1H-pyrazol-4-yl)-7-methoxypyrido[3,2-d]pyrimidin-6-yl)-3-methyl-3-azabicyclo[3.1.0]hexane-1-carboxamide]
4.2 | 8.7 | 2.5 | COc1cc2ncnc(-c3cn(C)nc3-c3ccccc3)c2cc1OC(=O)N1CCOC[C@@H]1C [Example 62, 7-methoxy-4-(1-methyl-3-phenyl-1H-pyrazol-4-yl)quinazolin-6-yl (S)-3-methylmorpholine-4-carboxylate]
2.3 | 1.5 | 1.2 | COc1cc2ncnc(-c3cn(C)nc3-c3ccc(F)cc3F)c2nc1NC(=O)[C@]12C[C@H]1CN(C)C2 (single isomer, unassigned) [Example 424, (1R,5R)—N-(4-(3-(2,4-difluorophenyl)-1-methyl-1H-pyrazol-4-yl)-7-methoxypyrido[3,2-d]pyrimidin-6-yl)-3-methyl-3-azabicyclo[3.1.0]hexane-1-carboxamide or (1S,5S)—N-(4-(3-(2,4-difluorophenyl)-1-methyl-1H-pyrazol-4-yl)-7-methoxypyrido[3,2-d]pyrimidin-6-yl)-3-methyl-3-azabicyclo[3.1.0]hexane-1-carboxamide]
2 | 3.8 | 1.4 | COc1cc2ncnc(-c3cn(C)nc3-c3ccccc3)c2cc1NC(=O)c1c(C)cccc1F [Example 201, 2-fluoro-N-(7-methoxy-4-(1-methyl-3-phenyl-1H-pyrazol-4-yl)quinazolin-6-yl)-6-methylbenzamide]
1.8 | 0.8 | 1 | COc1cc2ncnc(-c3cn(C)nc3-c3ccccc3)c2nc1NC(=O)[C@]12CN(C)C[C@H]1C2(F)F (single isomer, unassigned) [Example 416, (1R,5S)-6,6-difluoro-N-(7-methoxy-4-(1-methyl-3-phenyl-1H-pyrazol-4-yl)pyrido[3,2-d]pyrimidin-6-yl)-3-methyl-3-azabicyclo[3.1.0]hexane-1-carboxamide or (1S,5R)-6,6-difluoro-N-(7-methoxy-4-(1-methyl-3-phenyl-1H-pyrazol-4-yl)pyrido[3,2-d]pyrimidin-6-yl)-3-methyl-3-azabicyclo[3.1.0]hexane-1-carboxamide]
1.4 | 1.6 | 0.7 | CCn1cc(-c2ncnc3cc(OC(F)F)c(NC(=O)C4CC4)cc23)c(-c2ccccc2)n1 [Example 302, N-(7-(difluoromethoxy)-4-(1-ethyl-3-phenyl-1H-pyrazol-4-yl)quinazolin-6-yl)cyclopropanecarboxamide]
